What was measured:
PfCRT = test: Potential co-substrates tested for influx of VF-6 via PfCRT into the oocyte; type: cell-based, Plasmodium falciparum; set-up: key: X: Compounds that have been tested as potential co-substrates but are not required for influx of VF-6 via PfCRT into the oocyte
[1] = tested on: C4^Dd2 versus C2^GC03 infected erythrocytes; test: Peptidomic analysis, peptide levels in C4^Dd2 relative to C2^GC03 parasites (LC-MS); type: cell-based, Plasmodium falciparum
[2] = Peptides tested before peptidomic data was obtained

| Compound | Tested as potential co-substrate but not required for influx of VF-6 via PfCRT into the oocyte (PfCRT) | Assignment as substrate or not a substrate based on accumulation ratios from peptidomic data [1, 2] | further results |
| --- | --- | --- | --- |
| N[C@@H](Cc1ccc(O)cc1)C(=O)O [L-tyrosine] | X | – | – |
| CC(C)[C@H](N)C(=O)O [L-valine] | X | – | – |
| DPVN [DN-4] | – | – | Assignment as substrate or not a substrate based on accumulation ratios from peptidomic data ([1]; Peptides tested after peptidomic data was obtained): substrate |
| PENF [PEF-4] | – | substrate | – |
| PHFD [PD-4] | – | substrate | – |
| PVNF [PF-4] | X | – | – |
